Source: the supplement of paper PMC10733146

How the values were obtained:
Assay in all cases: viability relative to DMSO control (fraction); higher = less drug effect (more viable cells)
Conditions in all cases: 48 h
Everolimus = compound: CO[C@H]1C[C@@H]2CC[C@@H](C)[C@@](O)(O2)C(=O)C(=O)N2CCCC[C@H]2C(=O)O[C@H]([C@H](C)C[C@@H]2CC[C@@H](OCCO)[C@H](OC)C2)CC(=O)[C@H](C)/C=C(\C)[C@@H](O)[C@@H](OC)C(=O)[C@H](C)C[C@H](C)/C=C/C=C/C=C/1C [Everolimus]
Outline: (§1)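 The cells were primary mononuclear tumour cells, either fresh or cryopreserved, isolated by Ficoll from blood or bone marrow or derived from processed lymph node. Each well of a 384-well plate received 4 × 10^4 cells onto compounds pre-plated at five concentrations, with one well per concentration. The medium was RPMI-1640 with penicillin/streptomycin, L-glutamine and human serum, and plates stood at 37 °C and 5% CO2 for 48 h. Viability is reported as CellTiter-Glo luminescence relative to the median of 16 inner DMSO wells.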

Bendamustine = compound: Cn1c(CCCC(=O)O)nc2cc(N(CCCl)CCCl)ccc21 [Bendamustine]
Outline: as §1

Duvelisib = compound: C[C@H](Nc1ncnc2nc[nH]c12)c1cc2cccc(Cl)c2c(=O)n1-c1ccccc1 [Duvelisib]
Outline: as §1

Selinexor = compound: O=C(/C=C\n1cnc(-c2cc(C(F)(F)F)cc(C(F)(F)F)c2)n1)NNc1cnccn1 [Selinexor]
Outline: as §1

Navitoclax = compound: CC1(C)CCC(c2ccc(Cl)cc2)=C(CN2CCN(c3ccc(C(=O)NS(=O)(=O)c4ccc(N[C@H](CCN5CCOCC5)CSc5ccccc5)c(S(=O)(=O)C(F)(F)F)c4)cc3)CC2)C1 [Navitoclax]
Outline: as §1

Venetoclax = compound: CC1(C)CCC(CN2CCN(c3ccc(C(=O)NS(=O)(=O)c4ccc(NCC5CCOCC5)c([N+](=O)[O-])c4)c(Oc4cnc5[nH]ccc5c4)c3)CC2)=C(c2ccc(Cl)cc2)C1 [Venetoclax]
Outline: as §1

Filgotinib = compound: O=C(Nc1nc2cccc(-c3ccc(CN4CCS(=O)(=O)CC4)cc3)n2n1)C1CC1 [Filgotinib]
Outline: as §1

[1] = compound: CCc1ccc(/C=C2/SC(=S)NC2=O)cc1
Outline: as §1

[2] = compound: O=C(NO)c1cccc(C(=O)NCCc2ccccc2)c1
Outline: as §1

primary DLBCL patient cells (S049) gave a viability (Everolimus; 0.0032 µM) of 1.1, a viability (Everolimus; 0.016 µM) of 1.04 and a viability (Everolimus; 0.08 µM) of 1.09. The viability (Everolimus; 0.4 µM) was 1.05, the viability (Everolimus; 2 µM) was 1.02 and the viability (Bendamustine; 0.032 µM) was 0.986. The viability (Bendamustine; 0.16 µM) was 0.994, the viability (Bendamustine; 0.8 µM) was 1.05 and the viability (Bendamustine; 4 µM) was 1.11. For the same test system, the viability (Bendamustine; 20 µM) was 0.937, the viability (Duvelisib; 0.0016 µM) was 0.988 and the viability (Duvelisib; 0.008 µM) was 0.969. It also gave a viability (Duvelisib; 0.04 µM) of 0.92, a viability (Duvelisib; 0.2 µM) of 0.986 and a viability (Duvelisib; 1 µM) of 0.81. The viability (Selinexor; 0.008 µM) was 0.54, the viability (Selinexor; 0.04 µM) was 0.486 and the viability (Selinexor; 0.2 µM) was 0.499. The viability (Selinexor; 1 µM) was 0.669, the viability (Selinexor; 5 µM) was 0.586 and the viability (Navitoclax; 0.0032 µM) was 1. For the same test system, the viability (Navitoclax; 0.016 µM) was 0.834, the viability (Navitoclax; 0.08 µM) was 0.375 and the viability (Navitoclax; 0.4 µM) was 0.0676. It also gave a viability (Navitoclax; 2 µM) of 0.0439, a viability (Venetoclax; 0.00064 µM) of 0.898 and a viability (Venetoclax; 0.0032 µM) of 0.593. The viability (Venetoclax; 0.016 µM) was 0.149, the viability (Venetoclax; 0.08 µM) was 0.0521 and the viability (Venetoclax; 0.4 µM) was 0.0447. It also gave a viability (Filgotinib; 0.024 µM) of 0.918, a viability (Filgotinib; 0.12 µM) of 0.969 and a viability (Filgotinib; 0.6 µM) of 1.03. For the same test system, the viability (Filgotinib; 3 µM) was 0.926, the viability (Filgotinib; 15 µM) was 0.203 and the viability ([1]; 0.024 µM) was 0.744. For the same test system, the viability ([1]; 0.12 µM) was 0.798, the viability ([1]; 0.6 µM) was 0.902 and the viability ([1]; 3 µM) was 0.873. It also gave a viability ([1]; 15 µM) of 0.737, a viability ([2]; 0.024 µM) of 0.886 and a viability ([2]; 0.12 µM) of 0.986. For the same test system, the viability ([2]; 0.6 µM) was 0.966, the viability ([2]; 3 µM) was 1.02 and the viability ([2]; 15 µM) was 1.05.

In the case of primary DLBCL patient cells (S076), the viability (Everolimus; 0.0032 µM) is reported as 0.937, the viability (Everolimus; 0.016 µM) is reported as 0.888 and the viability (Everolimus; 0.08 µM) is reported as 0.891. It also gave a viability (Everolimus; 0.4 µM) of 0.887, a viability (Everolimus; 2 µM) of 0.855 and a viability (Bendamustine; 0.032 µM) of 0.945. The viability (Bendamustine; 0.16 µM) was 1.1, the viability (Bendamustine; 0.8 µM) was 1.08 and the viability (Bendamustine; 4 µM) was 0.965. The viability (Bendamustine; 20 µM) was 0.759, the viability (Duvelisib; 0.0016 µM) was 0.884 and the viability (Duvelisib; 0.008 µM) was 0.839. For the same test system, the viability (Duvelisib; 0.04 µM) was 0.732, the viability (Duvelisib; 0.2 µM) was 0.718 and the viability (Duvelisib; 1 µM) was 0.611. For the same test system, the viability (Selinexor; 0.008 µM) was 0.97, the viability (Selinexor; 0.04 µM) was 0.943 and the viability (Selinexor; 0.2 µM) was 0.819. It also gave a viability (Selinexor; 1 µM) of 0.563, a viability (Selinexor; 5 µM) of 0.331 and a viability (Navitoclax; 0.0032 µM) of 1.07. It also gave a viability (Navitoclax; 0.016 µM) of 0.95, a viability (Navitoclax; 0.08 µM) of 0.689 and a viability (Navitoclax; 0.4 µM) of 0.279. The viability (Navitoclax; 2 µM) was 0.15, the viability (Venetoclax; 0.00064 µM) was 1.09 and the viability (Venetoclax; 0.0032 µM) was 1.01. It also gave a viability (Venetoclax; 0.016 µM) of 0.622, a viability (Venetoclax; 0.08 µM) of 0.451 and a viability (Venetoclax; 0.4 µM) of 0.374. For the same test system, the viability (Filgotinib; 0.024 µM) was 1.02, the viability (Filgotinib; 0.12 µM) was 1.03 and the viability (Filgotinib; 0.6 µM) was 0.966. The viability (Filgotinib; 3 µM) was 0.911, the viability (Filgotinib; 15 µM) was 0.348 and the viability ([1]; 0.024 µM) was 0.949. For the same test system, the viability ([1]; 0.12 µM) was 0.942, the viability ([1]; 0.6 µM) was 1.07 and the viability ([1]; 3 µM) was 0.995. It also gave a viability ([1]; 15 µM) of 0.942, a viability ([2]; 0.024 µM) of 1.15 and a viability ([2]; 0.12 µM) of 1.12. It also gave a viability ([2]; 0.6 µM) of 1.09, a viability ([2]; 3 µM) of 1.13 and a viability ([2]; 15 µM) of 1.17.

primary T-NHL patient cells (S058) was tested, and the viability (Everolimus; 0.0032 µM) was 0.922, the viability (Everolimus; 0.016 µM) was 1.07 and the viability (Everolimus; 0.08 µM) was 0.954. It also gave a viability (Everolimus; 0.4 µM) of 1.03, a viability (Everolimus; 2 µM) of 0.944 and a viability (Bendamustine; 0.032 µM) of 0.971. The viability (Bendamustine; 0.16 µM) was 1.01, the viability (Bendamustine; 0.8 µM) was 0.925 and the viability (Bendamustine; 4 µM) was 0.868. It also gave a viability (Bendamustine; 20 µM) of 0.564, a viability (Duvelisib; 0.0016 µM) of 1.1 and a viability (Duvelisib; 0.008 µM) of 1.04. It also gave a viability (Duvelisib; 0.04 µM) of 0.923, a viability (Duvelisib; 0.2 µM) of 1.03 and a viability (Duvelisib; 1 µM) of 0.91. It also gave a viability (Selinexor; 0.008 µM) of 0.967, a viability (Selinexor; 0.04 µM) of 0.877 and a viability (Selinexor; 0.2 µM) of 0.806. For the same test system, the viability (Selinexor; 1 µM) was 0.709, the viability (Selinexor; 5 µM) was 0.469 and the viability (Navitoclax; 0.0032 µM) was 1.19. It also gave a viability (Navitoclax; 0.016 µM) of 1.08, a viability (Navitoclax; 0.08 µM) of 1.01 and a viability (Navitoclax; 0.4 µM) of 0.568. For the same test system, the viability (Navitoclax; 2 µM) was 0.325, the viability (Venetoclax; 0.00064 µM) was 1.06 and the viability (Venetoclax; 0.0032 µM) was 1.13. For the same test system, the viability (Venetoclax; 0.016 µM) was 0.921, the viability (Venetoclax; 0.08 µM) was 0.718 and the viability (Venetoclax; 0.4 µM) was 0.547. The viability (Filgotinib; 0.024 µM) was 0.912, the viability (Filgotinib; 0.12 µM) was 0.985 and the viability (Filgotinib; 0.6 µM) was 0.904. For the same test system, the viability (Filgotinib; 3 µM) was 0.875, the viability (Filgotinib; 15 µM) was 0.524 and the viability ([1]; 0.024 µM) was 0.89. It also gave a viability ([1]; 0.12 µM) of 0.978, a viability ([1]; 0.6 µM) of 1.14 and a viability ([1]; 3 µM) of 0.927. It also gave a viability ([1]; 15 µM) of 0.909, a viability ([2]; 0.024 µM) of 1.02 and a viability ([2]; 0.12 µM) of 1.31. It also gave a viability ([2]; 0.6 µM) of 1.07, a viability ([2]; 3 µM) of 1.02 and a viability ([2]; 15 µM) of 1.08.
